“Also recorded” adds a separate entry of the source. Where two headings read alike, the source gives them in different places.
Key:
local microvasculature = experiment: Fast Fourier transformation (FFT) of signals at micro-patch sites; assay type: in vivo, human
Text: This leads to present disclosure of a means to overcome the potential confusion: I herein introduce the application of spectral domain analysis [fast Fourier transformation (FFT), alluded to above, and variations thereof such as joint time frequency)] to characterize PTT values. This enables comparative assessment of: FFT of PTTPPG (primarily influenced by arrival of the stroke volume at underlying artery), FFT of PTTlaserDoppler (arrival of stroke volume at microvasculature), and FFT of PTTPPG-LaserDoppler.
Once combined monitoring becomes available at a given site, and then concurrent FFT analysis of PTT of artery, acv and vein will enable one to delineate the sites of microvascular and neuro-microvascular activity. In addition to micro-patch induced changes in readings between sites of measurement (e.g. PTT), we can also measure changes at sites of measurement (e.g., mean, heights). Again, confounders such as different units and differing criteria for onset may be avoided with FFT.

[1] = system: local microvasculature (forehead)
Procedure: Prior to the customization of nitroglycerin according to the present invention, nicotine was customized in accordance with the purposes of present invention. This entailed customization of a commercially available clear NICODERM patch, nicotine delivery patch, (with 0.83 mg of nicotine/cm^2). Again, lesser or higher concentrations may be used for a micro-patch; these are not currently available, since currently available nicotine patches delivery a fixed dose/cm^2 patch such that a higher systemic dose is obtained by using a larger patch.
The preliminary investigations with nicotine micro-patches (0.83 mg/cm^2) entailed customizing a section of the micro-patch so that it adhered to an area of skin that was sufficient to deliver drug to the area under a laser Doppler flowmetry probe and that enabled attachment of the laser Doppler flowmetry probe to an upper surface of the micro-patch.

[2] = system: local microvasculature (finger); experiment: Laser Doppler scanner imaging of micro-patch sites on the fingers; assay type: in vivo, human; details: FIG. 25
Text: Nitroglycerin induces vasodilation independent of the parasympathetic pathways. […] Anesthesiology 2004;101:A246] and phenylephrine [Silverman D G, Stout R G: Distinction between atropine-sensitive control of microvascular and cardiac oscillatory activity. Microvasc Res 63:196-208, 2002].

[3] = system: local microvasculature (forehead); experiment: Laser Doppler scanner imaging of micro-patch sites on the forehead; assay type: in vivo, human; details: several minutes after application, FIGS. 22-24
Text: Another alternative is provided by the laser Doppler scanning imager. […] [Wardell K, Braverman I M, Silverman D G, Nilsson G E: Spatial heterogeneity in normal skin perfusion recorded with laser Doppler imaging and flowmetry. Microvascular Research 48(1):26-38, 1994 July]. […] This is accomplished by rapidly scanning an area by a shifting light that is sequentially directed to successive study sites by a mirror. […] This is because the laser Doppler scanner typically monitors a given site for fractions of a second. […] Compromises include rapidly scanning all sites at repeat intervals for a long enough period to overcome the effects of pulsations and oscillations. However, a relatively long interval is required to ensure this. Thus, the laser Doppler scanner mitigates spatial variability at the expense of temporal variability (e.g., beat-to-pulsations with each heart beat as well as oscillations in activity as a component of autonomic regulation of blood vessels).

[4] = system: local microvasculature (finger); experiment: Micro-patch applied to the finger, laser Doppler flowmetry; assay type: in vivo, human
Text: The difference likewise is seen in results generated by a laser Doppler scanner (discussed below).

[5] = system: local microvasculature (forehead); details: scopolamine applied with/before nicotine, FIG. 18
[6] = system: local microvasculature (forehead); experiment: Study B: acetylcholine and nitroglycerin micro-patches, laser Doppler flowmetry of forehead perfusion in patients with diabetes; assay type: in vivo, human; details: 10 diabetic patients with retinopathy
Procedure: Methods: For each session, subjects lay on a bed in a semi-recumbent position in a temperature-controlled room (24+1° C.). A three-lead electrocardiogram and a noninvasive brachial artery blood pressure cuff were applied. The three laser Doppler flowmetry probes with customized acetylcholine, nitroglycerin, and placebo micro-patches (as described above) attached were adhered onto the three double-stick discs on the forehead so as to enable undisturbed monitoring and drug delivery. Laser Doppler flowmetry monitoring was performed continuously at each site until a vasodilatory plateau was maintained for ≧3 minutes or for a maximum of 20 minutes. Data were collected at a rate of 1000 Hz using Chart for Windows (ADlnstruments, Colorado Springs, Colo.).
The local microvascular effects of transdermal acetylcholine and nitroglycerin were first tested in 10 healthy volunteers (7 males, 3 females; mean age 36.1, range 19 to 56 years) without vascular disease or diabetes. […]
An investigator blinded to the status of the subject and to the nature of the study site assessed the laser Doppler tracing at each study site. […] The effects of the single dose of acetylcholine was compared to the single dose of nitroglycerin in the healthy volunteers, with the differences analyzed using Wilcoxon Signed Rank Test (WSRT). […]

[7] = system: local microvasculature (forehead); experiment: Study B: acetylcholine and nitroglycerin micro-patches, laser Doppler flowmetry of forehead perfusion in healthy volunteers; assay type: in vivo, human; details: for increase in laser Doppler flowmetry readings, mean (95% CI): 10 healthy volunteers, forehead, plateau vs baseline; for time to marked rise in laser Doppler flowmetry voltage (flux) after drug application: each healthy volunteer; for blood flow at the micro-patch site, representative tracings: one healthy subject, FIG. 19
Text: (§1) Mixing was accomplished to achieve a final product that was smooth and free of abrasive particles. Based on trial and error testing, it was elected to pursue testing with acetylcholine chloride powder dissolved in water for placement on an adherent surface (e.g., clear tape). […] This dose is proportional to doses of MIOCHOL-E,™ (that is, a clinically available acetylcholine preparation that is used to produce papillary constriction (miosis) during cataract surgery) that had been tested in preliminary trials. However, the agent used for micro-patches can be superconcentrated compared to the solution used for intraocular injection—made possible because of the small delivery area.
The dry side of the acetylcholine “micro-patch” was adhered to the end of a laser Doppler flowmetry probe (a PF 5010 with Probe Model 407, Perimed, Sweden in accordance with a preferred embodiment) (see FIGS. 1 and 2). A sham drug micro-patch was made in the same way with 0.02-mL of HPLC-grade water instead of acetylcholine solution. Before micro-patch application, a DOUBLE-STICK DISC™ (3M Health Care, Neuss, Germany) (that is, the double-sided adhesive ring 6 discussed above) with an overall diameter of 38.1-mm and a central hole (or opening) diameter of 8.7-mm is placed at the site to be tested. The double-sided adhesive ring 6 serves as an adherent base onto which a monitor such as a laser Doppler flowmetry probe 1 is placed as well as to define the area (59.4-mm^2) for drug application. In addition to providing for targeted adherence, when placed between the micro-patch 2 and the study surface (as shown in FIG. 1) this further limits the area of drug delivery by providing a barrier to drug delivery from the outer regions of the micro-patch 2. As detailed below, this delivered as much as 10% of that used to constrict the pupil during cataract surgery Dose-response curve can be assessed with serial dilutions. […] Laser Doppler flowmetry is an exemplary form of potential monitoring (used in each of the Table 2 studies).
The creation of a nitroglycerin micro-patch so as to enable concurrent monitoring of an endothelium-dependent transdermal preparation (acetylcholine, described above) and an endothelium-independent vasodilator (nitroglycerin) is simpler than the creation of the acetylcholine micro-patch. […] The present invention provides not only for the application of the disclosed method for monitoring the local circulation but the tailoring of the micro-patch to ensure effective delivery throughout the monitoring site while avoiding delivery of excess drug that might predispose to remote and/or systemic effects. For a single laser Doppler flowmetry probe, the nitroglycerin micro-patch may be obtained by using a standard hole-punch to cut a 6-mm diameter (28.3-mm^2 area) section of a full size 0.6 mg/hr MINITRAN™ nitroglycerin patch (3M, Minnesota). Alternatively, for applications where one wishes to move the laser Doppler flowmetry probe so as to encompass a larger area (as with the inventive assembly in FIG. 16), a small rectangle may be appropriate. Such patches are designed for homogeneous delivery of drug at a rate of 0.03-mg/hour per 100-mm^2 area of patch, such that the section used in the inventive micro-patch delivered at a rate of approximately 0.008-mg/hr. Although not currently available, lesser or higher concentrations of nitroglycerin may be used for micro-patches, pending dose response studies to confirm local efficacy and lack of systemic effects. The nitroglycerin micro-patch then is placed onto a double-sided adhesive ring for adherence to a monitoring probe (see FIGS. 1 and 2) or it may be placed on the tissue under an elevated support assembly 131 or scanner (described below).
Methods: For each session, subjects lay on a bed in a semi-recumbent position in a temperature-controlled room (24+1° C.). A three-lead electrocardiogram and a noninvasive brachial artery blood pressure cuff were applied. […]

forehead blood flow = experiment: Non-iontophoretic transdermal acetylcholine at the forehead, laser Doppler flowmetry (Table 2); assay type: in vivo, human; details: Silverman, <0.25 ml of 1%, inc
Text: as §1
The dry side of the acetylcholine “micro-patch” was adhered to the end of a laser Doppler flowmetry probe (a PF 5010 with Probe Model 407, Perimed, Sweden in accordance with a preferred embodiment) (see FIGS. 1 and 2). A sham drug micro-patch was made in the same way with 0.02-mL of HPLC-grade water instead of acetylcholine solution. […] As detailed below, this delivered as much as 10% of that used to constrict the pupil during cataract surgery Dose-response curve can be assessed with serial dilutions. […]

forearm blood flow = details: Iontophoresis, inc, cited from earlier work
[8] = system: local microvasculature (forehead); experiment: Study D: impact of fatty meal on responses to nitroglycerin and acetylcholine micro-patches; assay type: in vivo, human; details: 10 minutes after patch application
Procedure: Two hours later, subjects underwent application of acetylcholine and nitroglycerin micro-patches. As described above, the former was prepared by mixing 100 mg of solid acetylcholine with […] of sterile water. From this solution (concentration of 14.3 mg/ml) we used an aliquot of just under 0.14 ml (less than 10% of the standard 20 mg dose injected into the eye during cataract surgery). The latter consisted of a 1.4 cm×1.4 cm translucent square (cut from a full-sized nitroglycerin patch) to delivery 0.008 mg/hr of nitroglycerin to the study site. Before each patch application, seven sites of the forehead were monitored with a commercially available integrating laser Doppler flowmetry probe that averages the output from several closely packed light-transmitting channels (to partially overcome spatial heterogeneity). At 10 minutes after patch application, readings were repeated. Changes were analyzed using paired t-test.

Row | Structure (SMILES) | flow at the micro-patch site (laser Doppler scanner) [2] | relative blood flow at the micro-patch site (laser Doppler scanner) [3] | change in flow when applied to the finger [4] | mean percent increase in blood flow (95% CI) [6] | increase in laser Doppler flowmetry readings, mean (95% CI) [7] | time to marked rise in laser Doppler flowmetry voltage (flux) after drug application [7] | blood flow at the micro-patch site, representative tracings [7] | also measured
1 | CN1CCCC1c1cccnc1 (stereo not drawn) [nicotine] | lack of increased flow | increase in relative blood flow; also recorded: caused vasodilation; also recorded: greatest flow | no significant change | – | – | – | – | change in the 0.03-0.12 Hz frequency range by FFT (local microvasculature; 0.03-0.12 Hz): marked increase; oscillatory activity at micro-patch site by FFT (local microvasculature; in vivo): marked oscillatory activity; increase in flow at the active site ([1]; button-sized translucent micro-patch, forehead of seven healthy subjects): 388.4%; response at a remote site or in systemic indices (heart rate, blood pressure, flow at other sites) ([1]; drug delivery limited to the micro-patch): no response; flow at the nicotine site relative to baseline (laser Doppler flowmetry) ([1]; forehead, between 5 and 15 minutes after application, FIG. 17): approximately 300 % of baseline; increase in local blood flow ([1]; transdermal application at the forehead, within 30 min): 2-5 fold; local microvasculature's response to the micro-patch ([1]; transdermal micro-patch): vasodilation
2 | CN1[C@@H]2C[C@@H](OC(=O)[C@H](CO)c3ccccc3)C[C@H]1[C@@H]1O[C@@H]12 [scopolamine] | – | – | – | – | – | – | – | effect of scopolamine on the nicotine-induced increase in perfusion [5]: blunted; also recorded: inhibition
3 | CC(=O)OCC[N+](C)(C)C.[Cl-] [acetylcholine, acetylcholine chloride] | – | increase in relative blood flow; also recorded: increased blood flow | – | 156% (91%-221%) | 406% (245%-566%) | two | Prompt increases in blood flow | change in systemic blood pressure and heart rate ([7]; human, in vivo): lack of significant change; Change in Blood Flow (forehead blood flow): 50-250%; Change in Blood Flow (forearm blood flow; Morris, approx 0.25 ml of 1%): 50-100%; Change in Blood Flow (forearm blood flow; Noon, approx 0.25 ml of 2%): 1000%
4 | O=[N+]([O-])OCC(CO[N+](=O)[O-])O[N+](=O)[O-] [nitroglycerin] | induced vasodilation; also recorded: flow increased | increase in relative blood flow; also recorded: caused vasodilation; also recorded: Increased flow | significant change | 116% (79%-153%) | 365% (179%-550%) | two | Prompt increases in blood flow | nitroglycerin/acetylcholine ratio of induced increase ([8]; two hours after fat-laden meal): 1.31; nitroglycerin/acetylcholine ratio of induced increase ([8]; two hours after nonfat meal): 0.94; change in systemic blood pressure and heart rate ([7]; healthy volunteers): lack of significant change

Reference: US9877681B2, ““Micro-patch” for assessment of the local microvasculature and microcirculatory vasoreactivity” (priority 2007, dated 2018)
